US20130303564A1, “METHOD FOR TREATING A NEURODEGENERATIVE DISORDER” (RUSH UNIVERSITY MEDICAL CENTER, priority 2012, published 2013)

What was measured:
[1] = tested on: primary mouse microglia; assay: LPS-induced NO (nitrite) production in primary mouse microglia; format: cell-based
Description: (§1) Primary mouse microglia were treated with different concentrations of NaPB for 6 h followed by stimulation with LPS under serum-free condition. After 24 h of stimulation, concentrations of nitrite were measured in supernatants (A) and the level of iNOS protein was monitored in cells by Western blot (B). […] After 5 h of stimulation, the expression of iNOS mRNA was monitored by semi-quantitative RT-PCR (C). Cells preinctibated with different concentration of trichostatin A (TSA) and sodium butyrate (NaBu) for 6 h were stimulated with LPS for 24 h under serum-free condition followed by monitoring the level of nitrite in supernatants (p). […] Primary human astroglia isolated from fetal brain tissues were treated with different concentrations of NaPB for 6 h followed by stimulation with IL-1β under serum-free condition. After 48 h of stimulation, concentrations of nitrite (E) were measured in supernatants. Human astroglia plated at 70-80% confluence in 12-well plates were co-transfected with 0.25 μg of phiNOS(7.2)Luc and 12.5 ng of pRL-TK using the Lipofectamine-Plus (Invitrogen). Twenty-four h after transfection, cells received NaPB. After 6 h of incubation, cells were stimulated with IL-1β (20 ng/ml) for 12 h. Firefly (ff-Luc) and Renilla (r-Luc) luciferase activities were obtained by analyzing the total cell extract (F).
(§2) Activated microglia and astroglia are known to produce excessive amount of NO having the potential of damaging neurons in neurodegenerative disorders. We investigated the effect of NaPB on the expression of iNOS in microglia. LPS is a prototype inducer of various proinflammatory molecules in different cell types including mouse microglia. Therefore, primary mouse microglia preincubated with different doses of NaPB for 6 h were stimulated with LPS under serum-free condition. […] We used trichostatin A (TSA) and sodium butyrate (NaBu) for this purpose.
Isolation of Mouse Microglia: Microglia were isolated from mixed glial cultures. Briefly, on day 7-9, the mixed glial cultures were washed three times with Dulbecco's modified Eagle's medium/F-12 and subjected to shaking at 240 rpm for 2 h at 37° C. on a rotary shaker. The floating cells were washed and seeded on to plastic tissue culture flasks and incubated at 37° C. for 1 h. The attached cells were seeded onto new plates for further studies. […] Mouse BV-2 microglial cells (kind gift from Virginia Bocchini of Universityof Perugia) were also maintained and induced as indicated above.

[2] = tested on: NF-κB; assay: Transcriptional activity of NF-κB (PBIIX-Luc reporter) in BV-2 microglial cells; format: cell-based, mouse
Description: Transcriptional activity of NF-κB: Transcriptional activity of NF-κB was assayed. […] After 24 h of transfection, […], and firefly and Renilla luciferase activities were recorded in a TD-20/20 Luminometer (Turner Designs, Sunnyvale, Calif.) by analyzing total cell extract according to standard instructions provided in the Dual Luciferase Kit (Promega), Relative luciferase activity of cell extracts was typically represented as (firefly luciferase value/Renilta luciferase value)×10^−3.

[3] = tested on: cholesterol; assay: Serum cholesterol in male C57/BL6 mice; format: in vivo, mouse; details: 200 mg/kg body wt/d, oral, 7 d
Description: Mice (6-8 wk old) were treated with NaPB (200 mg/kg body wt/d) and pravastatin (1 mg/kg body wt/d) separately via gavage for 7 d followed by quantification of cholesterol in serum using a simple fluorometric method.
Intermediates of the mevalonate pathway play a role in the expression of iNOS and proinflammatory cytokines in glial cells. End product of the mevalonate pathway is cholesterol and therefore, we investigated if NaPB had any effect on the level of cholesterol in vivo in mice.
Assay of cholesterol in serum: Total cholesterol was quantified irr serum by using an Amplex Red Cholesterol Assay kit from Invitrogen. Briefly, cholesterol was oxidized by cholesterol oxidase to yield H2O2, which then reacted with 10-acetyl-3,7 dihydroxyphenoxazine (Amplex Red). In the presence of horseradish peroxidase (HRP), this Amplex Red:H2O2 complex produced highly fluorescent resorufin, which was detected by fluorometry.

[4] = tested on: BV-2 microglial cells; assay: Superoxide production in microglial cells; format: cell-based, mouse; details: 500 μM
Source text: Results represent three independent experiments.
Superoxide measurements: Superoxide production was detected by LumiMax™ Superoxide Anion Detection Kit (Stratagene) as described by us (30).

[5] = tested on: NF-κB p65; details: 200 mg/kg body wt/day gavage from 3 h after last MPTP; 24 h after last MPTP
Source text: Twenty-four h after the last injection of MPTP, ventral midbrain sections were immunostained for p65 (low magnification). Midbrain sections of MPTP-intoxicated mice were also double-labeled for p65 and glial cell markers (GFAP for astrocytes and CD11b for microglia). Results represent three independent experiments. D) NF-κB p65 positive cells counted in four nigral sections (two images per slide) from each of four mice in an Olympus IX81 fluorescence microscope using the MicroSuite™ imaging software are mentioned as cells/mm2. ^ap<0.0001 vs saline-control; ^bp<0.0001 vs MPTP.
Next, mice were treated with NaPB (200 mg/kg body wt/day) via gavage from 3 h after the last injection of MPTP and the activation of NF-κB was examined 24 h after the last injection of MPTP.
For acute MPTP intoxication, mice received four intraperitoneal (i.p.) injections of MPTP-HCl (18 mg/kg of free base; Sigma Chemical Co., St. Louis, Mo.) in saline at 2 hr intervals. Control animals received only saline.
For immunofluorescence staining on fresh frozen sections, rat anti-mouse CD11b (1:100), goat anti-mouse GFAP (1:100), rabbit anti NF-κB p65 (1:100), goat anti-NF-κB p65 (1:100), rabbit anti NF-κB p50 (1:100), and rabbit anti-mouse iNOS (1:250) were used. The samples were mounted and observed under a Bio-Rad MRC1024ES confocal laser scanning microscope.

[6] = tested on: p21^ras; details: 500 μM preincubation
Description: A) Mouse BV-2 microglial cells preincubated with different concentrations of FTI and GGTI were stimulated with LPS for 60 min followed by monitoring the activation of NF-κB by EMSA. B) Cells preincubated with different concentrations of FTI and GGTI were stimulated with LPS for 10 min followed by monitoring the production of superoxide. […] C) Cells were transfected with Δp21^ras, Δp21^rac or an empty vector using Lipofectamine Plus. Twenty-four hour after transfection, cells were stimulated with LPS followed by monitoring superoxide production at 15 and 30 ‘rain of stimulation. ^ap<0.001 vs control; ^bp<0.001 vs LPS-15 min; ^cp<0.001 vs LPS-30 min. D) Cells preincubated with 500 μM NaPB were stimulated with LPS. At different time points, activation of p21^ras and p21^rac was monitored. Results represent three independent experiments.
Next, we examined the effect of NaPB on the activation of p21^ras and p21^rac.
Activation of p21^ras and p21^rac: Activation of p21^ras was monitored. Briefly, after 6 h of MPTP insult, ventral midbrain was dissected out and frozen immediately on dry ice. […] Then the amount of activated p21^ras was determined in GST beads by a Western blot using a p21^ras specific antibody.

[7] = tested on: p21^ras
Description: A) Mice were treated with NaPB (200 mg/kg body wt/d.) via gavage from 1 d prior to MPTP injection. Six h after the last injection of MPTP, activation of p21^ras and p21^rac was monitored in ventral midbrain tissues. Experiment was repeated three times each time using two animal in each group. […] Results represent three independent experiments.
A) Mice were treated with NaPB (200 mg/kg body wt/d) via gavage from 1 d prior to MPTP injection. At different h of MPTP insult, nigral punches from mice were pooled together and analyzed for the activation of p21′ (A) and the expression of iNOS mRNA (B, RT-PCR; C, real-time PGR). Experiments were repeated three times each time using two animals in each group. ^ap<0.001 vs control (Oh)-iNOS.
Therefore, in order to delineate whether glial activation-associated events happen before or after the loss of dopaminergic neurons, we performed a time-course study to monitor nigral activation of p21^ras and expression of iNOS and striatal loss of dopamine in MPTP-intoxicated mice, Micropunches from the nigra were used for monitoring p21^ras and iNOS.
Animals and MPTP intoxications: Six- to eight-week old C57BL/6 mice were purchased from Harlan, Indianapolis, Ind. […]
Activation of p21^ras and p21^rac: Activation of p21^ras was monitored. […] Then the amount of activated p21^ras was determined in GST beads by a Western blot using a p21^ras specific antibody.

[8] = tested on: phospho-IκBα; details: 0.5 mM, 6 h preincubation, LPS 1 μg/ml
Description: (A) BV-2 microglial cells preincubated with 0.5 mM NaPB for 6 h were stimulated with 1 μg/ml LPS. At different minute of stimulation, the level of phospho-1κBα was monitored by Western blot.
Activation of NF-κB was monitored by IκBαphosphorylation, DNA binding activity by EMSA and transcriptional activity by reporter assays.

[9] = tested on: MPTP-intoxicated mice; details: NaPB 200 mg/kg body wt/day from 3 h after last MPTP; MPTP alone approximately 72% loss
Description: We monitored the level of nigral GSH by HPLC.
Analysis of GSH: Nigral tissues were dissected and then sonicated in 0.2M perchloric acid solution followed by centrifugation of nigral extracts at 12,000 rpm for 10 mins at 4° C. Resulting supernatants were analyzed for GSH in Complete Stand-Alone HPLC-ECD System EiCOMHTEC-500 using gold working electrode (Eicorn We-AU) and mobile phase containing 99% 0.1M sodium phosphate buffer (pH 2.5), 1% MeOH. (v/v), and 50 mg/L EDTA-2Na.

[10] = tested on: iNOS
Description: as §1, with “(F). […]” for “(F).”

[11] = tested on: dopaminergic neurons of MPTP-intoxicated mice; details: 200 mg/kg body wt/day from 3 h after last MPTP, 7 d
Description: Mice receiving NaPB (200 mg/kg body wt/day) from 3 h after the last injection of MPTP were sacrificed 7d after the last injection of MPTP followed by TH immunostaining of SNpc (A) and striatum (B), counting of TH-positive neurons in SNpc (C), quantification of TH-positive fibers in striatum (D), assay of neurotransmitters in striatum (E), and quantification of GSH in nigra (F). Data are means+SEM of eight mice per group. ^ap<0.0001 vs saline group; ^bp<0.0001 vs the MPTP group.
For acute MPTP intoxication, mice received four intraperitoneal (i.p.) injections of MPTP-HCl (18 mg/kg of free base; Sigma Chemical Co., St. Louis, Mo.) in saline at 2 hr intervals. Control animals received only saline. For chronic MPTP intoxication, mice received 10 injections of MPTP (s.c.; 25 mg/kg body weight) together with 10 injections of probenecid (i.p.; 250 mg/kg body weight) at an interval of 3.5 d.
Therefore, for short-term treatment, mice with acute MPTP 3 h after the last injection of MPTP. […]
Immunohistochemistry and quantitative morphology: Seven days after MPTP intoxication, mice were sacrificed and their brains fixed, embedded, and processed for tyrosine hydroxylase (TH) staining. […] Quantitation of striatal TH immunostaining was performed. […]

[12] = tested on: chronic MPTP mouse model of PD; details: oral 100 mg/kg body wt/d from the third injection of MPTP/probenecid
Description: A) Six to eight week old male C57BL/6 mice received 10 injections of MPTP (s.c.; 25 mg/kg body weight) together with 10 injections of probenecid (i.p.; 250 mg/kg body weight) for 5 weeks. Control group of mice received only saline. One group of mice were treated with NaPB (100 mg/kg body weight/d) via gavage from the 3rd injection of MPTP/probenecid and continued for 1 week thereafter. Mice were tested for different motor tasks [horizontal activity (C), number of movements (D), rearing (E), and stereotypy (F)] one week after the last injection of MPTP followed by measuring the level of DA in striatum (B). Data are means+SEM of eight mice per group. ^ap<0.001 vs saline; ^bp<0.001 vs MPTP; p<0.05 vs saline; ^dp<0.05 vs MPTP.
We examined if NaPB was capable of protecting neurons in a chronic model (FIG. 10A). […] We initiated oral NaPB treatment (100 mg/kg body wt/d) from the third injection of MPTP/probenecid (FIG. 10A). […]
Behavioral analyses: Two types of behavioral experiments were conducted. This included open field experiment for locomotor activity and rotorod experiment for feet movement. .Locomotor activity was measured after 7 d of the last dose of MPTP injection in Digiscan Monitor (Omnitech Electronics, Inc., Columbus, Ohio). […] [sequence] software was used to analyze and store horizontal and vertical activity data, which were monitored automatically by infra-red beams.

[13] = tested on: microglia; details: any of the concentrations tested (data not shown)
Description: as §2

**Q.** What does the source list for sodium phenylbutyrate [NaPB]?
**A.** inhibition of LPS-induced production of NO ([1]; 1 or 2 h preincubation (data not shown)): not sufficient; inhibition of LPS-induced production of NO ([1]; higher concentrations (>200 μM), 6 h preincubation): markedly suppressed; inhibition of LPS-induced production of NO ([1]; lower concentration (100 μM), 6 h preincubation): not effective; RasV12-induced activation of NF-κB ([2]; RasV12-transfected cells, NaPB 6 h): attenuated; LPS-induced transcriptional activity of NF-κB ([2]; different concentrations, 6 h preincubation): suppressed; reduction of the level of cholesterol in serum [3]: about 30%; MPP+-induced production of superoxide ([4]; 6 h, 1 μM MPP+): attenuated; LPS-, TNF-α-, IL-1β-, gp120-, and Aβ-induced production of superoxide ([4]; 6 h preincubation, 10 min stimulation): knocked down; level of p65 in the SNpc [5]: markedly inhibited; LPS-induced activation of p21^ras [6]: markedly suppressed; activation of p21^ras in the nigra, time course ([7]; 200 mg/kg body wt/d gavage from 1 d prior to MPTP, all time points tested (up to 24 h)): markedly inhibited; MPTP-induced activation of p21^ras in the nigra ([7]; 200 mg/kg body wt/day gavage from 1 d prior to MPTP, 6 h after last MPTP): much decreased activation; LPS-induced phosphorylation of IκBα [8]: inhibited; loss of nigral GSH [9]: 18%; LPS-induced mRNA expression of iNOS ([10]; RT-PCR, 5 h LPS): dose-dependently inhibited; LPS-induced protein expression of iNOS ([10]; Western blot, 24 h LPS): dose-dependently inhibited; reduction in striatal TH ODs ([11]; vs MPTP alone (70% reduction)): less reduction; reduction in SNpc TH-positive neurons ([11]; vs MPTP alone (approximately 75% loss)): less reduction; locomotor activities (horizontal activity, number of movements, rearing, stereotypy) [12]: improved; toxicity to microglia (MTT) [13]: not toxic
